Experiments:
Assay in all cases: X-ray crystal structure, […] A
Type in all cases: binding
PaGT3 [1] = biological target: T1, PaGT3 (Phytolacca americana, UniProt B5MGN9); details: co-crystallized without acceptor; sugar-donor site; non-transferred donor analogue; also bound in 7vej and 7vek
T1 construct: full length; N-terminal His6 tag with TEV site, cut off (one Gly left before Met1); expressed in E. coli BL21 (DE3); two molecules in the asymmetric unit

PaGT3 [2] = biological target: T1, PaGT3; details: soaked into PaGT3/UDP-2FGlc crystals; acceptor site, molecule B only, occupancy 0.8
PaGT3 [3] = biological target: T1, PaGT3; details: co-crystallized with UDP-2FGlc; acceptor site, both molecules, two different positions

T1 sequence (B5MGN9 entry or part of it): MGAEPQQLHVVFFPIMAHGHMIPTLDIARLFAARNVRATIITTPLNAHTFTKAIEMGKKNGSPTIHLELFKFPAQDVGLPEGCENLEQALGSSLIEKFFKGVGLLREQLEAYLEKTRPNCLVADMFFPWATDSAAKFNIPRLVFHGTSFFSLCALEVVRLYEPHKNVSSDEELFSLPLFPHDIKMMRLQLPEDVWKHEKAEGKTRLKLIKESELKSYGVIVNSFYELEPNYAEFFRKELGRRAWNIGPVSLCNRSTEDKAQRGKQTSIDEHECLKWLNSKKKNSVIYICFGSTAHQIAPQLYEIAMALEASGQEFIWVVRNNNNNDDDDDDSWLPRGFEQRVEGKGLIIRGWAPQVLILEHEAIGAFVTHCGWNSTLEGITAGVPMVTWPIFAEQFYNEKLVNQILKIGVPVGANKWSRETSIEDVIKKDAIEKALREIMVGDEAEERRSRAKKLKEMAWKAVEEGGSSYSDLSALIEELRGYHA

With `O=c1ccn([C@@H]2O[C@H](COP(=O)(O)OP(=O)(O)O[C@H]3O[C@H](CO)[C@@H](O)[C@H](O)[C@H]3F)[C@@H](O)[C@H]2O)c(=O)[nH]1` [UDP-2FGlc] the “X-ray crystal structure, 2.20 A” value (PaGT3 [1]) was “The crystal structure of PaGT3 with the sugar-donor analogue UDP-2FGlc was determined”.
For `COc1cc(CNC(=O)CCCC/C=C/C(C)C)ccc1O` [capsaicin], the “X-ray crystal structure, 2.60 A” value (PaGT3 [2]) was “The calculated polder map confirms the occupancy of capsaicin in PaGT3 molecule B”.
In the case of `O=c1c(O)c(-c2ccc(O)cc2)oc2cc(O)cc(O)c12` [kaempferol], the “X-ray crystal structure, 1.85 A” value (PaGT3 [3]) is reported as “The electron density of kaempferol in both molecules of the enzyme”.

Source: publication PMC8900826, “Structural basis for substrate recognition in the Phytolacca americana glycosyltransferase PaGT3” (Acta Crystallographica. Section D, Structural Biology, 2022)
